Patent US20220281825A1 (priority 2016, published 2022)

Tests used:
[1] = tested on: JUNV-p; assay: organism not typed; type: cell-based, Junin (JUNV); settings: Vero, 24 h, read-out: JUNV-p EC50 (nM)
[2] = in vitro; settings: African green monkey
[3] = tested on: TCRV-p; assay: organism not typed; type: cell-based; settings: Vero, 24 h, read-out: TCRV-p EC50 (nM)
[4] = tested on: MACV-p; assay: organism not typed; type: cell-based, Machupo (MACV); settings: Vero, 24 h, read-out: MACV-p EC50 (nM)
[5] = tested on: LASV-p; assay: organism not typed; type: cell-based, Lassa (LASV); settings: Vero, 24 h, read-out: LASV-p EC50 (nM)

| SMILES | EC50 [1] [nM] | CC50 [2] [nM] | EC50 [3] [nM] | EC50 [4] [nM] | EC50 [5] [nM] |
| --- | --- | --- | --- | --- | --- |
| COc1ccc(-n2cnc3ccc(-c4cccc(C(C)C)c4)cc32)cc1 [Example A1, 1-(4-Methoxyphenyl)-6-[3-(propan-2-yl)phenyl]-1H-1,3-benzodiazole] | > 100 | 12900 | > 100 | > 100 | 31.7 |
| COc1ccc(-n2cnc3ccc(-c4ccc(C(C)C)cc4)cc32)cc1 [Example A2, 1-(4-methoxyphenyl)-6-[4-(propan-2-yl)phenyl]-1H-1,3-benzodiazole] | > 100 | 25600 | > 100 | > 100 | 6.6 |
| COc1ccc(-c2ccc3ncn(-c4ccc(OC)cc4)c3c2)cc1 [Example A3, 1,6-bis(4-methoxyphenyl)-1H-1,3-benzodiazole] | > 25 | < 300 | > 25 | > 25 | 7.6 |
| COc1ccc(-n2cnc3ccc(-c4ccc(C#N)cc4)cc32)cc1 [Example A4, 4-[1-(4-methoxyphenyl)-1H-1,3-benzodiazol-6-yl]benzonitrile] | > 25 | < 300 | > 25 | > 25 | > 25 |
| COc1ccc(-n2cnc3ccc(-c4ccccc4OC)cc32)cc1 [Example A5, 6-(2-methoxyphenyl)-1-(4-methoxyphenyl)-1H-1,3-benzodiazole] | > 25 | < 300 | > 25 | > 25 | > 25 |
| COc1ccc(-n2cnc3ccc(-c4cccc(OC)c4)cc32)cc1 [Example A6, 6-(3-methoxyphenyl)-1-(4-methoxyphenyl)-1H-1,3-benzodiazole] | > 25 | 9720 | > 25 | > 25 | > 25 |
| COc1ccc(-n2cnc3ccc(Cc4ccc(C)cc4)cc32)cc1 [Example A9, 1-(4-methoxyphenyl)-6-[(4-methylphenyl)methyl]-1H-1,3-benzodiazole] | – | – | – | – | > 100 |
| COc1ccc(-n2cnc3ccc(-c4ccc(S(C)(=O)=O)cc4)cc32)cc1 [Example A11, 6-(4-methanesulfonylphenyl)-1-(4-methoxyphenyl)-1H-1,3-benzodiazole] | > 25 | – | > 25 | > 25 | > 25 |
| COc1ccc(-n2cnc3c(-c4ccc(C(C)C)cc4)cccc32)cc1 [Example A19, 1-(4-methoxyphenyl)-4-[4-(propan-2-yl)phenyl]-1H-1,3-benzodiazole] | – | – | – | – | > 100 |
| COc1ccc(-n2cnc3c(-c4cccc(C(C)C)c4)cccc32)cc1 [Example A20, 1-(4-methoxyphenyl)-4-[3-(propan-2-yl)phenyl]-1H-1,3-benzodiazole] | – | – | – | – | > 100 |
| COc1ccccc1-n1cnc2ccc(-c3ccc(C(C)(C)O)cc3)cc21 [Example A22, 2-{4-[1-(2-methoxyphenyl)-1H-1,3-benzodiazol-6-yl]phenyl}propan-2-ol] | > 25 | – | > 25 | > 25 | > 25 |
| COc1cccc(-n2cnc3ccc(-c4ccc(C(C)(C)O)cc4)cc32)c1 [Example A23, 2-{4-[1-(3-methoxyphenyl)-1H-1,3-benzodiazol-6-yl]phenyl}propan-2-ol] | > 25 | – | > 25 | > 25 | > 25 |
| CC(=O)c1ccc(-c2ccc3ncn(-c4ccc5[nH]ccc5c4)c3c2)cc1 [Example A28, 1-{4-[1-(1H-indol-5-yl)-1H-1,3-benzodiazol-6-yl]phenyl}ethan-1-one] | 7.29 | – | > 25 | > 25 | 11 |
| c1cc2cc(-c3ccc4ncn(-c5ccc6[nH]ccc6c5)c4c3)ccc2[nH]1 [Example A29, 1,6-bis(1H-indol-5-yl)-1H-1,3-benzodiazole] | 6.96 | – | 15.2 | 11.1 | 0.53 |
| CC(C)Oc1ccc(-n2cnc3cnc(-c4ccc(C(C)(C)O)cc4)cc32)cc1 [Example B5, 2-(4-{1-[4-(propan-2-yloxy)phenyl]-1H-imidazo[4,5-c]pyridin-6-yl}phenyl)propan-2-ol] | 13.4 | – | > 25 | > 25 | > 25 |
| CC(=O)c1ccc(-c2cc3c(cn2)ncn3-c2ccc(OC(C)C)cc2)cc1 [Example B8, 1-(4-{1-[4-(propan-2-yloxy)phenyl]-1H-imidazo[4,5-c]pyridin-6-yl}phenyl)ethan-1-one] | > 25 | – | > 25 | > 25 | > 25 |
| CC(C)Oc1ccc(-c2cnc3ccc(-c4ccc(N)nc4)cn23)cc1 [Example C14, 5-{3-[4-(propan-2-yloxy)phenyl]imidazo[1,2-a]pyridin-6-yl}pyridin-2-amine] | > 25 | – | > 25 | > 25 | > 25 |

| SMILES | EC50 [1] [nM] | CC50 [2] [nM] | EC50 [3] [nM] | EC50 [4] [nM] | EC50 [5] [nM] |
| --- | --- | --- | --- | --- | --- |
| CC(C)Oc1ccc(-c2cnc3ccc(-c4ccc(C(N)=O)cc4)cn23)cc1 [Example C16, 4-{3-[4-(propan-2-yloxy)phenyl]imidazo[1,2-a]pyridin-6-yl}benzamide] | > 25 | – | > 25 | > 25 | > 25 |
| CC(C)Oc1ccc(-c2cnc3ccc(-c4ccc(OC(C)C)cc4F)cn23)cc1 [Example C23, 6-[2-fluoro-4-(propan-2-yloxy)phenyl]-3-[4-(propan-2-yloxy)phenyl]imidazo[1,2-a]pyridine] | > 25 | – | > 25 | > 25 | > 25 |
| CC(C)Oc1ccc(-c2cnc3ccc(-c4ccc(OCCN5CCOCC5)cc4)cn23)cc1 [Example C25, 4-[2-(4-{3-[4-(propan-2-yloxy)phenyl]imidazo[1,2-a]pyridin-6-yl}phenoxy)ethyl]morpholine] | ≥ 25 | – | > 25 | > 25 | > 25 |
| CC(C)Oc1ccc(-c2cnc3ccc(-c4ccc(C5(O)CNC5)cc4)cn23)cc1 [Example C29, 3-(4-{3-[4-(propan-2-yloxy)phenyl]imidazo[1,2-a]pyridin-6-yl}phenyl)azetidin-3-ol] | > 25 | – | > 25 | > 25 | > 25 |
| CC(C)Oc1ccc(-c2ccc3ncc(-c4ccc5c(c4)CCO5)n3c2)cc1 [Example C34, 3-(2,3-dihydro-1-benzofuran-5-yl)-6-[4-(propan-2-yloxy)phenyl]imidazo[1,2-a]pyridine] | 3.68 | – | 16.5 | 25.1 | 4.73 |
| CC(C)Oc1ccc(-c2ccc3ncc(-c4ccc(C(F)F)cc4)n3c2)cc1 [Example C36, 3-[4-(difluoromethyl)phenyl]-6-[4-(propan-2-yloxy)phenyl]imidazo[1,2-a]pyridine] | 23.2 | – | > 25 | > 25 | 8.18 |
| CC(C)Oc1ccc(-c2ccc3ncc(-c4ccc(OCCN5CCOCC5)cc4)n3c2)cc1 [Example C43, 4-[2-(4-{6-[4-(propan-2-yloxy)phenyl]imidazo[1,2-a]pyridin-3-yl}phenoxy)ethyl]morpholine] | > 25 | – | > 25 | > 25 | > 25 |
| CC(C)Oc1ccc(-c2ccc3ncc(-c4ccc(C(=O)O)cc4)n3c2)cc1 [Example C45, 4-{6-[4-(propan-2-yloxy)phenyl]imidazo[1,2-a]pyridin-3-yl}benzoic acid] | > 25 | – | > 25 | > 25 | > 25 |
| CC(C)Oc1ccc(-c2ccc3cnn(-c4ccc(OC(C)C)cc4)c3c2)cc1 [Example D1, 1,6-bis[4-(propan-2-yloxy)phenyl]-1H-indazole] | 14 | – | > 25 | > 25 | > 25 |
| CC(C)Oc1ccc(-c2ccc3ccn(-c4ccc(OC(C)C)cc4)c3c2)cc1 [Example D4, 1,6-bis[4-(propan-2-yloxy)phenyl]-1H-indole] | 8.1 | – | > 25 | 16.9 | > 25 |
| CC(C)Oc1ccc(-c2ccc3occ(-c4ccc(OC(C)C)cc4)c3c2)cc1 [Example D8, 3,5-bis[4-(propan-2-yloxy)phenyl]-1-benzofuran] | > 25 | – | > 25 | > 25 | > 25 |
| CC(C)Oc1ccc(-c2coc3ccc(-c4ccc5[nH]ccc5c4)cc23)cc1 [Example D9, 5-{3-[4-(propan-2-yloxy)phenyl]-1-benzofuran-5-yl}-1H-indole] | > 25 | – | > 25 | > 25 | > 25 |
| CC(=O)c1ccc(-c2cnc3cnc(-c4ccc(OC(C)C)cc4)cn23)cc1 [Example D14, 1-(4-{6-[4-(propan-2-yloxy)phenyl]imidazo[1,2-a]pyrazin-3-yl}phenyl)ethan-1-one] | 13.5 | – | 20.2 | 25 | 6.77 |
| CC(C)Oc1ccc(-c2ccc3cnc(-c4ccc(OC(C)C)cc4)n3c2)cc1 [Example D17, 3,6-bis[4-(propan-2-yloxy)phenyl]imidazo[1,5-a]pyridine] | > 25 | – | > 25 | > 25 | > 25 |
| CCOC(=O)c1nc2ccc(-c3ccc(OC(C)C)cc3)cn2c1-c1ccc(OC(C)C)cc1 [Example D20, ethyl 3,6-bis[4-(propan-2-yloxy)phenyl]imidazo[1,2-a]pyridine-2-carboxylate] | > 25 | – | > 25 | > 25 | > 25 |
| CC(C)Oc1ccc(-c2ccc3nc(C(=O)O)c(-c4ccc(OC(C)C)cc4)n3c2)cc1 [Example D21, 3,6-bis[4-(propan-2-yloxy)phenyl]imidazo[1,2-a]pyridine-2-carboxylic acid] | > 25 | – | > 25 | > 25 | > 25 |
